Measurements taken from patent US20120149697A1 (priority 2009, published 2012).

Test system: ScGT1 cells
Details: for cells remained viable: mouse

| Substance | cell viability (cytotoxicity effect) | cells remained viable [%] |
| --- | --- | --- |
| fulvic acids [FA] | remain viable | 94 |
| humic acids [HA] | remain viable | 96 |
